One test concerns Soybean seeds. The test is described as follows: Phytotoxicity evaluation during soybean germination. In kind it is in vivo. To be noted: 1 μM in germination media, 10 days. As for the experimental part: To evaluate the effect of synthetic auxin conjugates in plants, 2,4-D-Asp, 2,4-D-Glu, dicamba-Asp, and dicamba-Glu were synthesized (Irvine Chemistry Laboratory, Anaheim, Calif.) and tested for auxin effects during soybean germination.
Asp and Glu conjugates of 2,4-D and dicamba were dissolved in a small quantity of Na2CO3 and ethanol, respectively, diluted in ddH2O to obtain 10 mM stock solution, and filter sterilized. Soybean seeds of a Pioneer elite germplasm were sterilized with chlorine gas as following: a) two layers of seeds were placed in a 100×25 mm plastic Petri dish; b) in an exhaust fume hood, seeds were placed into a glass desiccator with a 250 mL beaker containing 100 mL bleach (5% NaOC1) and 3.5 mL 12N HCl was slowly added to the beaker; c) the lid was sealed closed on the desiccator and the seeds sterilized for at least 24 hr.
Sterilized soybean seeds were then imbibed in ddH2O under sterile conditions at 25° C. for 24 hours before germination test. For germination test, 6-8 imbibed seeds were placed on a 100×25 mm deep Petri dish plate containing 50 ml germination media supplemented with or without auxin herbicide conjugates. 1 L seed germination media contains 3.21 g GAMBORG B-5 basal medium (PhytoTech), 20 g sucrose, 5 g tissue culture agar, and is pH adjusted to 5.7. Media was autoclaved at 121° C. for 25 min and cooled to 60° C. before the addition of auxin conjugates. Germination was carried out in a Percival growth chamber at 25° C. under 18 hr light and 6 hr dark cycle at 90 to 150 μE/m2/s and grown for 10 days.

The subject of a further test is soybean seedlings. The test is described as follows: Soybean seedling response to spot infiltrated auxins and conjugates. As to 1st trifoliate leaf curl: key: 0 = no phenotype; +/− = threshold. As to Chlorotic lesion @ app. Pnt: key: 0 = no phenotype; +/− = threshold. The test is classed as in vivo. Also noted: 1st trifoliate leaf curl / Epinasty score: key: 0 = no phenotype; +/− = threshold. Particulars: for 1st trifoliate leaf curl / Epinasty score / Chlorotic lesion @ app. Pnt: spot infiltration; for Plant response phenotype, soybean: result in words. As for the experimental part: Conjugate forms of auxinic compounds when applied through spot infiltration, a needleless method to introduce exogenous agents into plant cells. Initially, various concentrations of analytical grade (98%+pure) IAA, 2,4-D, and dicamba were prepared as solutions that were applied directly to uni-foliate leaves of 9 day old soybean seedlings by spot infiltration in order to determine the range of auxinic response and severity.
Spot infiltration comprises applying a compound to be tested in composition that is applied to the surface of a plant, for example, to a leaf or other plant structure. For example, a method for testing a plant response to one or more compounds using spot infiltration comprises a) providing a composition comprising one or more compounds to be tested in a container having at least an opening for the compound enter and/or exit, and one or more elements for moving the composition into or out of the container; b) contacting at least one opening of the container with the surface of a plant and moving the composition comprising one or more compounds to at least the surface of the plant. A container and elements for moving the composition may comprise a syringe body and plunger. Moving the composition to the plant surface comprises contacting the surface with pressure sufficient for the composition to enter the cells of the plant. In an aspect, spot filtration testing comprises measuring an effect of the composition on the contacted plant and comparing that measure or effect to a plant that is not contacted with the composition.
Plant response phenotypes were documented at one day post-spot infiltration and subsequently every other day, up to nine days post treatment. […] In the studies described herein below, 5 replicate treatments for each conjugate form were conducted, along with appropriate negative controls.
(§1) Examples 9 and 10 utilized a spot infiltration method for the delivery of an herbicide directly to leaves of a plant. The method generally allows for the directed delivery of a variety of agents to a localized area of a plant, e.g. localized region of leaves, for screening or assessment purposes, e.g. to quickly assess the response of a plant to the agent. As used in the foregoing examples, the spot infiltration method was used to introduce specific herbicides or specific conjugates of the herbicides to seedling plant leaves. Following introduction of the herbicide or the appropriate conjugate, plants were observed daily for nine days for characteristics of epinasty, trifoliate leaf curly, chlorosis, and new growth recovery.
(§2) Briefly, a solution of the desired agent is prepared of the desired agent, e.g. as described above in Example 10, solutions (5% EtOH) of 1, 2.5 and 5 mM IAA. The solution is then drawn into a 1 mL BD™ slip-tip syringe, bulk, non-sterile syringe (e.g. Becton, Dickinson and Company, Product No. 301025) with 100 μL markings. The desired volume is then applied to the leaf, e.g. as described in Examples 9 and 10, with the tip of the syring against the leaf and positive pressure applied to the syringe plunger. Sufficient pressure is applied in order to infuse the area beneath the syringe opening, but not so much pressure as to cause a visible-to-the-eye puncture or hole to form in the leaf. Some run-off of solution around the syringe opening is expected. In the foregoing examples, two spots were applied to each of two leaves per seedling for soybean plants. […] In soybean, both spots per leaf were at the distal portion of the leaf about 1-2 cm apart. When the method was applied to Arabidopsis, two developmentally intermediate aged leaves were chosen per plant, and one spot infiltration was carried out per leaf.

Test [1] deals with Arabidopsis ecotype Col-0 plant. The test is described as follows: Arabidopsis response to spot infiltrated auxins and conjugates. In kind it is in vivo, Arabidopsis thaliana. To be noted: result in words. As for the experimental part: The effect of auxin conjugates was assessed using Arabidoposis (Arabidopsis thialiana) ecotype Col-0 plant. Prior to studies utilizing the auxin conjugates, levels of analytical grade (98%+pure) IAA, 2,4-D and dicamba in solution were applied at various concentrations directly to developmentally similar leaves of 20-23 day old Arabidopsis seedlings by needleless syringe spot infiltration methodology, in order to determine range of auxinic response and severity. Phenotypes were documented relative to control at 1 day post-spot infiltration and subsequently every other day, up to nine days post treatment. Three concentrations were chosen based on reproducibility, and conjugated forms were then studied with 4 or more replicate treatments for each, along with appropriate negative controls (H2O and 10% EtOH).
as §1, §2
Generally, for Arabidopsis, the two leaves were chosen from opposite sides of rosette. In general, the spot infiltration method is carried out on younger plants in order to minimize experimental footprint and to maintain developmental uniformity. However, the method is not limited to use on young plants and can be easily applied to older plants as determined by the goals of a particular experiment.

We go through 5 compounds from patent US20150351390A1, “COMPOSITIONS AND METHODS FOR AUXIN-ANALOG CONJUGATION” (PIONEER HI-BRED INTERNATIONAL, INC., priority 2012, published 2015).

On to `O=C(O)CC[C@H](NC(=O)COc1ccc(Cl)cc1Cl)C(=O)O` [2,4-D-Glu], for which, in the test with Soybean seeds, the “Soybean seed germination and growth” value was “seed germination and growth were normal”. Further, the “1st trifoliate leaf curl” value in the test on soybean seedlings (100 μM), in the test on soybean seedlings (250 μM) and in the test with soybean seedlings (500 μM) was 0 each time. For the same compound, the Epinasty score entry in the test on soybean seedlings (100 μM) and in the test with soybean seedlings (250 μM) was “+/−” in each case. The “Plant response phenotype, soybean” value in the test with soybean seedlings (500 μM) is “modest epinasty”; with soybean seedlings (100, 250 & 500 μM), “distinctly lower level of severity”; with soybean seedlings (lower concentration than 500 μM), “no discernible auxinic responses”.

As for `O=C(O)C[C@H](NC(=O)COc1ccc(Cl)cc1Cl)C(=O)O` [2,4-D-Asp], the “Soybean seed germination and growth” value in the test on Soybean seeds was “seed germination and growth were normal”. Besides, the “1st trifoliate leaf curl” value in the test with soybean seedlings (100 μM), in the test on soybean seedlings (250 μM) and with soybean seedlings (500 μM) was 0 throughout. Besides, the “Plant response phenotype, soybean” value in the test on soybean seedlings (100, 250 & 500 μM) is on record as “auxinic response nearly equivalent to that of 2,4-D”.

With `COc1c(Cl)ccc(Cl)c1C(=O)O` [dicamba, 3,6-dichloro-2-methoxybenzoic acid free acid], the “Soybean seed germination and growth” value with Soybean seeds is on record as “seed germination was arrested”. Also, the “Chlorotic lesion @ app. Pnt” value with soybean seedlings (50 μM), in the test with soybean seedlings (100 μM) and in the test on soybean seedlings (250 μM) was 0 each time. The “Plant response phenotype, soybean” value with soybean seedlings (50, 100 and 250 μM) was “epinasty at day 1 and leaf curling of 1st tri-foliate”. For the same compound, the “Phenotype, Arabidopsis” value in test [1] (50, 100 and 250 μM) was “petiole epinasty and leaf curling at day one”.

Take `COc1c(Cl)ccc(Cl)c1C(=O)NC(CC(=O)O)C(=O)O` (centres unmarked) [dicamba-Asp]: the “Soybean seed germination and growth” value with Soybean seeds is “seed germination and growth were normal”. In the test on soybean seedlings (50 μM), the “1st trifoliate leaf curl” value turned out to be 0, the “Chlorotic lesion @ app. Pnt” value was 0 and the Epinasty score is 0. In addition, in the test with soybean seedlings (100 μM), the “1st trifoliate leaf curl” value was 0, the “Chlorotic lesion @ app. Pnt” value is listed as 0 and the Epinasty score was 0. Besides, in the test with soybean seedlings (250 μM), the “1st trifoliate leaf curl” value was 0, the “Chlorotic lesion @ app. Pnt” value came out at 0 and the Epinasty score came out at 0. For the same compound, the “Plant response phenotype, soybean” value in the test on soybean seedlings (50, 100 and 250 μM) is on record as “phenotypes similar to that of negative control”. Also, the “Phenotype, Arabidopsis” value in test [1] (50, 100 and 250 μM) is listed as “No obvious phenotype”.

As for `COc1c(Cl)ccc(Cl)c1C(=O)NC(CCC(=O)O)C(=O)O` (centres unmarked) [dicamba-Glu], the “Soybean seed germination and growth” value in the test with Soybean seeds was “seed germination and growth were normal”. Also, the “1st trifoliate leaf curl” value in the test on soybean seedlings (50 μM), with soybean seedlings (100 μM) and in the test with soybean seedlings (250 μM) was 0 in each case. Moreover, the “Chlorotic lesion @ app. Pnt” value in the test on soybean seedlings (50 μM), in the test with soybean seedlings (100 μM) and in the test on soybean seedlings (250 μM) was 0 throughout. For the same compound, the Epinasty score in the test with soybean seedlings (50 μM), in the test with soybean seedlings (100 μM) and in the test on soybean seedlings (250 μM) was 0 in each case. In addition, in the test with soybean seedlings (50, 100 and 250 μM), the “Plant response phenotype, soybean” value was “phenotypes similar to that of negative control”. Further, the “Phenotype, Arabidopsis” value in test [1] (100 and 250 μM, compared to dicamba alone) is reported as “modest epinasty”.
